Patent US10858366B2 (priority 2016, dated 2020)

Experiments:
[1] = molecular target: RNP_CAL (PB2, PB1, PA, NP, influenza A Luciferase reporter in 293T cells) (Influenza A virus (strain swl A/California/04/2009 H1N1), UniProt C3W5S0); test: cell-based
[2] = molecular target: truncated Influenza A/victoria/75 PA(1-209) (Influenza A virus (strain A/Victoria/3/1975 H3N2), UniProt P31343); test: Endonuclease Inhibition Assay (PA FP Assay); type: binding; settings: fluorescence polarization, fluorescein-labeled probe
Description: Endonuclease Inhibition Assay (PA FP Assay)
Compounds were dissolved and serially diluted in 100% DMSO then 0.5 μl was transferred to 384-well plates. 50 nM truncated Influenza A/victoria/75 PA(1-209) was prepared in assay buffer (20 mM Tris, pH=7.5, 10 mM MgCl2, 0.01% Tween 20, 100 mM NaCl and 1 mM DTT) and 20 ul was added to each well of assay plate with compounds, centrifuged for 1 min at 1000 rpm and incubated for 30 min at room temperature. 20 μl of 20 nM fluorescein-labeled probe [5-(4-(3-carboxy-3-oxopropanoyl)-4-(4-chlorobenzyl)piperidine-1-carbonyl)-2-(6-hydroxy-3-oxo-3H-xanthen-9-yl)benzoic acid] in assay buffer was then added, centrifuged for 1 min at 1000 rpm and incubated for 60 min at room temperature.
Fluorescence polarization was measured on Perkin Elmer Envision plate reader with excitation at 480 nm and emission at 535 nm and reported in millipolarization units (mP). IC50 values were determined relative to wells containing 125 uM of a compound known to bind to the active site of PA and uninhibited wells containing 1.25% DMSO.

| Compound | EC50 [1] [nM] | IC50 [2] [nM] |
| --- | --- | --- |
| O=c1ccn2c(c1O)-c1ncc(Br)n1C[C@@H]2C(c1ccccc1)c1ccccc1 [Example 7, (S)-6-benzhydryl-3-bromo-11-hydroxy-5H-imidazo[1,2-a]pyrido[2,1-c]pyrazin-10(6H)-one] | 170 | 9 |
| CCC1N(C(c2ccccc2)c2ccccc2)n2ccc(=O)c(O)c2-c2nccn21 (stereo not shown) [Example 78, 6-benzhydryl-5-ethyl-11-hydroxy-5,6-dihydro-10H-imidazo[1,2-d]pyrido[2,1-f][1,2,4]triazin-10-one] | 180 | 40 |
| O=c1cnn2c(c1O)-c1nccn1C[C@@H]2[C@H](c1ccc(F)cc1)c1ccc(C(F)(F)F)nc1 [Example 20, (S)-6-((R)-(4-fluorophenyl)(6-(trifluoromethyl)pyridin-3-yl)methyl)-11-hydroxy-5,6-dihydro-10H-imidazo[2′,1′:3,4]pyrazino[1,2-b]pyridazin-10-one] | 720 | 300 |
| Cc1nc2n(c1C)C[C@H](C(c1ccccc1)c1ccccc1)n1ccc(=O)c(O)c1-2 [Example 14, (S)-6-benzhydryl-11-hydroxy-2,3-dimethyl-5H-imidazo[1,2-a]pyrido[2,1-c]pyrazin-10(6H)-one] | 4200 | 100 |
| O=c1cnn2c(c1O)-c1nccn1C[C@@H]2[C@@H](c1ccc(F)cc1)c1cccc(Br)c1 [Example 30, (S)-6-((S)-(3-bromophenyl)(4-fluorophenyl)methyl)-11-hydroxy-5,6-dihydro-10H-imidazo[2′,1′:3,4]pyrazino[1,2-b]pyridazin-10-one] | – | 10 |
| O=c1ccn2c(c1O)-c1ncc(C(F)F)n1C[C@@H]2C(c1ccccc1)c1ccccc1 [Example 57, (S)-6-benzhydryl-3-(difluoromethyl)-11-hydroxy-5H-imidazo[1,2-a]pyrido[2,1-c]pyrazin-10(6H)-one] | 180 | 40 |
| O=c1ccn2c(c1O)-c1ncc(Cl)n1C[C@@H]2C(c1ccccc1)c1ccccc1 [Example 5, (S)-6-Benzhydryl-3-chloro-11-hydroxy-5,6-dihydro-10H-imidazo[1,2-a]pyrido[2,1-c]pyrazin-10-one] | 100 | 20 |
| COCc1cnc2n1C[C@H](C(c1ccccc1)c1ccccc1)n1ccc(=O)c(O)c1-2 [Example 56, (S)-6-benzhydryl-11-hydroxy-3-(methoxymethyl)-5H-imidazo [1,2-a]pyrido[2,1-c]pyrazin-10(6H)-one] | 92 | 100 |
| O=c1ccn2c(c1O)-c1ncc(-c3cn[nH]c3)n1C[C@@H]2C(c1ccccc1)c1ccccc1 [Example 52, (S)-6-benzhydryl-11-hydroxy-3-(1H-pyrazol-4-yl)-5,6-dihydro-10H-imidazo[1,2-a]pyrido[2,1-c]pyrazin-10-one] | 8300 | 8 |
| O=c1cnn2c(c1O)-c1ncc(CO)n1C[C@@H]2C(c1ccc(F)cc1)c1ccc(F)cc1 [Example 50, (S)-6-(bis(4-fluorophenyl)methyl)-11-hydroxy-3-(hydroxymethyl)-5,6-dihydro-10H-imidazo[2′,1′:3,4]pyrazino[1,2-b]pyridazin-10-one] | 100 | – |
| O=c1ccn2c(c1O)-c1ncoc1CN2C(c1ccccc1)c1ccccc1 [Example 83, 5-benzhydryl-10-hydroxy-4,5-dihydro-9H-oxazolo[4,5-d]pyrido[1,2-b]pyridazin-9-one] | 970 | – |
| O=c1ccn2c(c1O)-c1ocnc1CN2C(c1ccccc1)c1ccccc1 [Example 84, 5-benzhydryl-10-hydroxy-4,5-dihydro-9H-oxazolo[5,4-d]pyrido[1,2-b]pyridazin-9-one] | 11000 | – |
| Cc1cnc2n1C[C@H](C(c1ccccc1)c1ccccc1)n1ccc(=O)c(O)c1-2 [Example 13, (S)-6-benzhydryl-11-hydroxy-3-methyl-5H-imidazo[1,2-a]pyrido[2,1-c]pyrazin-10(6H)-one] | 310 | – |
| O=c1ccn2c(c1O)-c1ncc(CO)n1C[C@@H]2C(c1ccccc1)c1ccccc1 [Example 54, (S)-6-benzhydryl-11-hydroxy-3-(hydroxymethyl)-5,6-dihydro-10H-imidazo [1,2-a]pyrido[2,1-c]pyrazin-10-one] | – | 100 |
| CC(C)CC(=O)Oc1c2n(ncc1=O)[C@@H](C(c1ccc(F)cc1)c1ccc(F)cc1)Cn1ccnc1-2 [Example 87, (S)-6-(bis(4-fluorophenyl)methyl)-10-oxo-5,6-dihydro-10H-imidazo[2′,1′:3,4]pyrazino[1,2-b]pyridazin-11-yl 3-methylbutanoate] | 21 | – |
| O=c1ccn2c(c1O)-c1nccn1C(C1CC1)N2C1c2ccccc2CSc2ccccc21 (stereo not shown) [Example 76, 5-cyclopropyl-6-(6,11-dihydrodibenzo[b,e]thiepin-11-yl)-11-hydroxy-5,6-dihydro-10H-imidazo[1,2-d]pyrido[2,1-f][1,2,4]triazin-10-one] | 160 | – |
| COC(=O)OCOc1c2n(ncc1=O)[C@@H](C(c1ccc(F)cc1)c1ccc(F)cc1)Cn1ccnc1-2 [Example 88, (S)-((6-(bis(4-fluorophenyl)methyl)-10-oxo-5,6-dihydro-10H-imidazo[2′,1′:3,4]pyrazino[1,2-b]pyridazin-11-yl)oxy)methyl methyl carbonate] | 42 | – |
| CC(=O)Oc1c2n(ncc1=O)[C@@H](C(c1ccc(F)cc1)c1ccc(F)cc1)Cn1ccnc1-2 [Example 85, (S)-6-(bis(4-fluorophenyl)methyl)-10-oxo-5,6-dihydro-10H-imidazo[2′,1′:3,4]pyrazino[1,2-b]pyridazin-11-yl acetate] | 22 | – |
| O=c1cnn2c(c1O)-c1nccn1C[C@@H]2[C@H](c1ccc(F)cc1)c1cccc(F)c1 [Example 26, (S)-6-((R)-(3-fluorophenyl)(4-fluorophenyl)methyl)-11-hydroxy-5,6-dihydro-10H-imidazo[2′,1′:3,4]pyrazino[1,2-b]pyridazin-10-one] | 38 | – |
| O=c1cnn2c(c1O)-c1nccn1C[C@@H]2[C@@H](c1ccc(F)cc1)c1ccc(C(F)(F)F)cc1 [Example 32, (S)-6-((R)-(4-fluorophenyl)(4-(trifluoromethyl)phenyl)methyl)-11-hydroxy-5,6-dihydro-10H-imidazo[2′,1′:3,4]pyrazino[1,2-b]pyridazin-10-one] | 250 | – |
| Cc1ccccc1[C@H](c1ccc(F)cc1)[C@H]1Cn2c(CO)cnc2-c2c(O)c(=O)cnn21 [Example 51, (S)-6-((S)-(4-fluorophenyl)(o-tolyl)methyl)-11-hydroxy-3-(hydroxymethyl)-5,6-dihydro-10H-imidazo[2′,1′:3,4]pyrazino[1,2-b]pyridazin-10-one] | 90 | – |
| O=c1cnn2c(c1O)-c1nccn1C[C@@H]2[C@@H](c1ccc(F)cc1)c1cccc(C(F)(F)F)c1 [Example 21, (S)-6-((S)-(4-fluorophenyl)(3-(trifluoromethyl)phenyl)methyl)-11-hydroxy-5,6-dihydro-10H-imidazo[2′,1′:3,4]pyrazino[1,2-b]pyridazin-10-one] | 52 | – |
| O=c1ccn2c(c1O)-c1nccn1C1(COC1)N2C1c2ccccc2CSc2ccccc21 (stereo not shown) [Example 80, 6-(6,11-dihydrodibenzo[b,e]thiepin-11-yl)-11-hydroxy-6H,10H-spiro[imidazo[1,2-d]pyrido[2,1-f][1,2,4]triazine-5,3′-oxetan]-10-one] | 10 | – |
| N#Cc1ccccc1[C@H](c1ccc(F)cc1)[C@H]1Cn2ccnc2-c2c(O)c(=O)cnn21 [Example 44, 2-((S)-(4-fluorophenyl)((S)-11-hydroxy-10-oxo-5,6-dihydro-10H-imidazo[2′,1′:3,4]pyrazino[1,2-b]pyridazin-6-yl)methyl)benzonitrile] | 300 | – |
| C[C@@H](NCc1cnc2n1C[C@H](C(c1ccccc1)c1ccccc1)n1ccc(=O)c(O)c1-2)C(F)(F)F [Example 66, (S)-6-benzhydryl-11-hydroxy-3-((((R)-1,1,1-trifluoropropan-2-yl)amino)methyl)-5,6-dihydro-10H-imidazo[1,2-a]pyrido[2,1-c]pyrazin-10-one] | 310 | – |
| Cc1ccccc1[C@H](c1ccc(F)cc1Br)[C@H]1Cn2ccnc2-c2c(O)c(=O)cnn21 [Example 35, (S)-6-((R)-(2-bromo-4-fluorophenyl)(o-tolyl)methyl)-11-hydroxy-5,6-dihydro-10H-imidazo[2′,1′:3,4]pyrazino[1,2-b]pyridazin-10-one] | 50 | – |
| CS(=O)(=O)c1cccc([C@H](c2ccc(F)cc2)[C@H]2Cn3ccnc3-c3c(O)c(=O)cnn32)c1 [Example 42, (S)-6-((S)-(4-fluorophenyl)(3-(methylsulfonyl)phenyl)methyl)-11-hydroxy-5,6-dihydro-10H-imidazo[2′,1′:3,4]pyrazino[1,2-b]pyridazin-10-one] | 2800 | – |
| O=c1cnn2c(c1O)-c1nccn1CC2C(c1ccc(Cl)cc1)c1ccc(Cl)cc1 (stereo not shown) [Example 10, 6-(bis(4-chlorophenyl)methyl)-11-hydroxy-5H-imidazo[2′,1′:3,4]pyrazino[1,2-b]pyridazin-10(6H)-one] | 320 | – |
| N#Cc1ccc([C@H](c2ccc(F)cc2)[C@H]2Cn3ccnc3-c3c(O)c(=O)cnn32)cc1 [Example 45, 4-((R)-(4-fluorophenyl)((S)-11-hydroxy-10-oxo-5,6-dihydro-10H-imidazo[2′,1′:3,4]pyrazino[1,2-b]pyridazin-6-yl)methyl)benzonitrile] | 42 | – |
